Assay results: patent US10526369B2, “Oxidative modification improves the drugability of cell penetrating peptides as drug carriers” (JOWIN BIOPHARMA, priority 2016, dated 2020)
Where a SMILES comes first, the peptide text is derived from it. Bridges are numbered along the chain shown (N, C = ends). Roman numbers before positions name the chains, in order. Where no end group is shown, it is not given here. The star is where a group is joined. FITC = O=C1OC2(c3ccc(O)cc3Oc3cc(O)ccc32)c2ccc(NC(=S)*)cc21; 5FAM = O=C1OC2(c3ccc(O)cc3Oc3cc(O)ccc32)c2ccc(C(=O)*)cc21

How the values were obtained:
[1] = Stability of peptides in mice serum (HPLC of remaining peptide, t1/2 by CompuSyn); type: in vitro ADME; conditions: for Fold increase (of t1/2 compared with CPPecp): t1/2 of CPPecp set as one-fold; for half-life: mouse
Experimental: FIG. 1 illustrates the stability of CPPecp in mice serum. CPPecp was dissolved in 1× PBS (4 mg/ml) and incubated with equal volume of mice serum (final 50%) for different time points (0, 2, 5, 15, 30, 60 min, respectively). The reaction was terminated by the addition of an equal volume of TCA solution (final 50%) and denatured serum proteins were removed by centrifugation. The supernatant was then assayed by HPLC to quantify the remaining CPPecp. Zero time point was set as 100 percent of remaining CPPecp and relative amounts of CPPecp in each time point were calculated. Data represent the mean±SD (standard deviation) of three independent experiments. The t1/2 of CPPecp was calculated by CompuSyn.
FIG. 2 illustrates comparison of stabilities between CPPecp and N-terminal FITC-conjugated CPPecp in mice serum. Both were dissolved in dH2O (0.5 mg/ml) and incubated with equal volume of 20% mice serum (final 10%) for different time points (0, 2, 5, 15, 30, 60 min, respectively). The reactions were terminated by the addition of an equal volume of TCA solution (final 50%) and denatured serum proteins were removed by centrifugation. The supernatants were assayed by HPLC to quantify the remaining peptides. Zero time point was set as 100 percent of remaining peptides and relative amounts of peptides in each time point were calculated. The t1/2, of CPPecp and N-terminal FITC-CPPecp were calculated by CompuSyn.
FIG. 3 illustrates stabilities of N-terminal (5-FAM)-CPPecp-CPPecp (A) and N-terminal Ac-CPPecp (B) in mice serum. Both modified peptides were dissolved in dH2O (0.5 mg/ml) and incubated with equal volume of 20% mice serum (final 10%) for different time points (0-24 hours for (5-FAM)-CPPecp-CPPecp and 0-60 min for Ac-CPPecp, respectively). The reactions were terminated by the addition of an equal volume of TCA solution (final 50%) and denatured serum proteins were removed by centrifugation. The supernatants were assayed by HPLC to quantify the remaining peptides. Zero time point was set as 100 percent of remaining peptides and relative amounts of peptides in each time point were calculated. The t1/2 of N-terminal (5-FAM)-CPPecp-CPPecp and N-terminal Ac-CPPecp were calculated by CompuSyn.
FIG. 5 illustrates comparison of stabilities between CPPecp (A) and CPPecp-dimer (B) in mice serum. Both peptides were dissolved in 1× PBS (4 mg/ml) and incubated with equal volume of mice serum (final 50%) for different time points (0-60 min for CPPecp and 0-48 hours for CPPecp-dimer, respectively). The reactions were terminated by the addition of an equal volume of TCA solution (final 50%) and denatured serum proteins were removed by centrifugation. The supernatants were assayed by HPLC to quantify the remaining peptides. Zero time point was set as 100 percent of remaining peptides and relative amounts of peptides in each time point were calculated. Data represent the mean±SD (standard deviation) of three independent experiments. The t1/2, of CPPecp and CPPecp-dimer were calculated by CompuSyn.
The unmodified CPPecp (NH2-NYRWRCKNQN-COOH (SEQ. ID NO:2)) was synthesized by MISSION BIOTECH Inc. in TAIWAN. To determine the stability of unmodified CPPecp in mice serum, 100 μl of CPPecp (0.5 mg/ml or 4 mg/ml) was mixed with equal volume of whole mice serum (strain: CD-1 (ICR), final 50%) and incubated at room temperature for 0, 2, 5, 15, 30 and 60 min. The reaction was stopped by adding 200 μl of 100% TCA solution and vortexed for 5 seconds to precipitate serum proteins. Denatured serum proteins were removed by centrifugation at 18000 x g, 4° C. for 2 mins. The supernatants were analyzed by HPLC (column: Purospher® STAR RP-18e, eluent A: 0.1% TFA in dH2O, eluent B: 0.1% TFA in acetonitrile, flow rate: 1ml/min, gradient: 2-35% of eluent B in 15 min, UV wavelength: 280 nm). Zero-time point was set as one hundred percent of remaining CPPecp and relative amount of CPPecp in each time point were calculated. The t1/2 of CPPecp was calculated by CompuSyn (ver. 1.0). […]

NCI-H460 cells = test: Heparan sulfate binding assay on cells (fluorescence spectrophotometer); type: cell-based; conditions: NCI-H460 cells pre-incubated with heparanase 5 U/ml, 37° C., 2 hours
Experimental: FIG. 7 illustrates binding specificity of CPPecp and CPPecp-dimer on NCI-H460 cells. Before treatment, each well (96-well plate) was blocked by 2% of BSA at 4° C. for 1 hour, and washed with PBS once. After blocking, NCI-H460 cells were incubated with 0.625, 1.25 and 2.5 μM of FITC-CPPecp and FITC-CPPecp dimer at 4° C. for 1 hour. After washing with PBS, the binding of FITC-CPPecp and FITC-CPPecp dimer were measured by fluorescence spectrophotometer (A). To test binding specificity, cells were incubated with heparanase (5 U/ml) at 37° C. for 2 hours before peptide incubation (B and C). Total peptide inputs (binding and washout) were set as 100 percent and the relative binding of FITC-CPPecp and FITC-CPPecp dimer were calculated. The data represented the means of triplicate incubations. […]
In order to certify if the specific binding affinity to heparan sulfate of disulfide linked CPPecp-dimer is still maintained as original CPPecp, the heparan sulfate binding affinity was investigated by FITC-conjugated CPPecp monomer and dimer, and measured by fluorescence spectrophotometer. […] After rinse, each well was refilled with 100 μl of 1× PBS and the fluorescence intensity was measured by fluorescence spectrophotometer (excitation: 485 nm; emission: 521 nm) as binding partition. Unbound and rinsed out peptides were obtained by adding up the fluorescence intensity of culture medium and buffer. […]

[2] = tested on: lung cancer cell lines: A549, NCI-H460 and NCI-H441; test: Toxicity in lung cancer cell lines (cell viability, MTS assay); type: cell-based; conditions: 0.3-30 μM, 72 hours
Experimental: FIG. 8 illustrates toxicities of CPPecp and CPPecp-dimer in different lung cancer cell lines. Cells were incubated with CPPecp and CPPecp-dimer in different concentrations (0, 0.3, 1, 3, 10 and 30 μM) at 37° C. for 72 hours. Cell viabilities were measured by MTS assay. The 0 μM of CPPecp (vehicle control) was set as 100 percent and the relative viabilities in each concentration were calculated.
In order to investigate the application potential of CPPecp-dimer as a drug carrier, the toxicity of CPPecp-dimer was tested and CPPecp monomer was compared in three lung cancer cell lines: A549, NCI-H460 and NCI-H441. Lung cancer cell lines were seeded in 96-well plates (2*10^3/well) and incubated overnight. After adhesion, cells were incubated with different concentrations of CPPecp and CPPecp dimer (0, 0.3, 1, 3, 10 and 30 μM) for 72 hours. Cell viabilities were determined by MST assay (Promega Corp.). The cells without treatment were set as control and 100 percent and the relative viabilities in each concentration were calculated.

[3] = mice serum, final 10%, peptide 0.5 mg/ml in dH2O
[4] = mice serum (CD-1 (ICR)), final 50%, room temperature

Row | Fold increase (of t1/2 compared with CPPecp) ([1]; mice serum) | half-life [1, 3] | increase of the stability of CPPecp ([1]; mice serum, final 50%) | half-life [1, 4] | Compound | stability compared with unmodified CPPecp (in words) ([1]; mice serum, final 10%) | binding percentage after heparanase treatment (NCI-H460 cells) | effect on cell viabilities [2]
1 | +40% | 3.28 min | – | – | N=C(N)NCCC[C@H](NC(=O)[C@H](Cc1c[nH]c2ccccc12)NC(=O)[C@H](CCCNC(=N)N)NC(=O)[C@H](Cc1ccc(O)cc1)NC(=O)[C@H](CC(N)=O)NC(=S)Nc1ccc2c(c1)C(=O)OC21c2ccc(O)cc2Oc2cc(O)ccc21)C(=O)N[C@@H](CS)C(=O)N[C@@H](CCCCN)C(=O)N[C@@H](CC(N)=O)C(=O)N[C@@H](CCC(N)=O)C(=O)N[C@@H](CC(N)=O)C(=O)O [FITC-CPPecp] ({FITC}-NYRWRCKNQN-OH; C-terminus assumed) | not improved | decreased binding percentage | –
2 | +17900% | – | up to 180 fold | 420 min | N=C(N)NCCC[C@H](NC(=O)[C@H](Cc1c[nH]c2ccccc12)NC(=O)[C@H](CCCNC(=N)N)NC(=O)[C@H](Cc1ccc(O)cc1)NC(=O)[C@@H](N)CC(N)=O)C(=O)N[C@@H](CSSC[C@H](NC(=O)[C@H](CCCNC(=N)N)NC(=O)[C@H](Cc1c[nH]c2ccccc12)NC(=O)[C@H](CCCNC(=N)N)NC(=O)[C@H](Cc1ccc(O)cc1)NC(=O)[C@@H](N)CC(N)=O)C(=O)N[C@@H](CCCCN)C(=O)N[C@@H](CC(N)=O)C(=O)N[C@@H](CCC(N)=O)C(=O)N[C@@H](CC(N)=O)C(=O)O)C(=O)N[C@@H](CCCCN)C(=O)N[C@@H](CC(N)=O)C(=O)N[C@@H](CCC(N)=O)C(=O)N[C@@H](CC(N)=O)C(=O)O [CPPecp-dimer] (I: H-NYRWRCKNQN-OH / II: H-NYRWRCKNQN-OH; disulfide I:6-II:6) | – | – | no inhibitory effect
3 | 0% | – | – | 2.34 min | H-NYRWRCKNQN-OH [CPPecp, NH2-NYRWRCKNQN-COOH (SEQ. ID NO:2), reference compound] | – | – | no inhibitory effect
4 | −24% | 1.79 min | – | – | Ac-NYRWRCKNQN [Ac-CPPecp] | – | – | –
5 | +720% | 19.2 min | – | – | N=C(N)NCCC[C@H](NC(=O)[C@H](Cc1ccc(O)cc1)NC(=O)[C@H](CC(N)=O)NC(=O)c1ccc2c(c1)C(=O)OC21c2ccc(O)cc2Oc2cc(O)ccc21)C(=O)N[C@@H](Cc1c[nH]c2ccccc12)C(=O)N[C@@H](CCCNC(=N)N)C(=O)N[C@@H](CS)C(=O)N[C@@H](CCCCN)C(=O)N[C@@H](CC(N)=O)C(=O)N[C@@H](CCC(N)=O)C(=O)N[C@@H](CC(N)=O)C(=O)N[C@@H](CC(N)=O)C(=O)N[C@@H](Cc1ccc(O)cc1)C(=O)N[C@@H](CCCNC(=N)N)C(=O)N[C@@H](Cc1c[nH]c2ccccc12)C(=O)N[C@@H](CCCNC(=N)N)C(=O)N[C@@H](CS)C(=O)N[C@@H](CCCCN)C(=O)N[C@@H](CC(N)=O)C(=O)N[C@@H](CCC(N)=O)C(=O)N[C@@H](CC(N)=O)C(=O)O [(5-FAM)-CPPecp-CPPecp] (5FAM-NYRWRCKNQNNYRWRCKNQN-OH; N-terminus and C-terminus assumed) | prolonged its stability from 2 to 24 hours | – | –
